In patent US4414226A, “1,4-Naphtoquinone derivatives and their use in treating coccidiosis” (Fujisawa Pharmaceutical Co., Ltd., priority 1980, dated 1983):

What was measured:
Solubility = format: physicochemical
Eimeria tenella = experiment: coccidium infection and treatment test in the chicken (Test example 1, Table 1); format: in vivo, Eimeria tenella; male white Leghorn chickens; design: Lesion score: scale not given here; conditions: for Lesion score: 3 times a day for 3 days, cecal lesions; for Weight gain index: noninfected group = 100
Description: (1) A coccidium infection and treatment test in the chicken
Male white Leghorn chickens, aged 2 weeks and with a mean body weight of 100 g, were treated with two representative examples of product compound (I) and Monensin, a control drug, at the various dose levels indicated in Table 1. Each compound and drug was suspended in a 1% aqueous solution of gum arabic and 2 ml per dose of the suspension was administered 3 times a day for 3 consecutive days. Birds in the untreated control groups were given 2 ml per dose of a 1% aqueous solution of gum arabic only in otherwise the same manner.
Immediately after the first dosing, birds in the infected groups were orally inoculated with 3.0×10^4 /bird of oocysts of Eimeria tenella. Body weights were taken at the first treatment and on the 3rd day after the entire course of treatment to investigate changes in body weight. Immediately after the second taking of body weights, the birds were terminated and autopsied to examine and score the cecal lesions.
Dosage: The total dose (mg) given to each bird during the test period.
Weight gain index: These indices were computed with the body weight gain
of birds in the noninfected group being taken as 100.
Three birds were assigned to each of the infected-non-treated groups, non-infected groups, the monencin group and the (Ia-A) groups, and the weight gain indices were computed from the mean body weight values for 3 birds. The (Ia-B) groups each consisted of a bird only.

Stability = format: physicochemical
[1] = total dose 40 mg per bird, oral
[2] = 30 minutes in 50° C. solution at pH 2
[3] = 30 minutes in 50° C. solution at pH 10

SMILES	Solubility (Solubility; acetone)	Solubility (Solubility; chloroform)	Solubility (Solubility; ethanol)	Solubility (Solubility; methanol)	Solubility (Solubility; water)	Lesion score (Eimeria tenella; total dose 1.25 mg per bird)	Weight gain index (Eimeria tenella; total dose 1.25 mg per bird)	Lesion score (Eimeria tenella; total dose 2.5 mg per bird)	Weight gain index (Eimeria tenella; total dose 2.5 mg per bird)	Lesion score (Eimeria tenella; total dose 5 mg per bird)	Weight gain index (Eimeria tenella; total dose 5 mg per bird)	Lesion score (Eimeria tenella; total dose 10 mg per bird)	Weight gain index (Eimeria tenella; total dose 10 mg per bird)	Lesion score (Eimeria tenella; total dose 20 mg per bird)	Weight gain index (Eimeria tenella; total dose 20 mg per bird)	Lesion score (Eimeria tenella; [1])	Weight gain index (Eimeria tenella; total dose 40 mg per bird)	Solubility (Solubility; ethyl acetate)	Solubility (Solubility; hexane)	Stability (Stability; [2])	also measured
COc1cc(C)cc2c(=O)oc3c(c12)C(=O)c1cccc(O)c1C3=O [(Ia-A), 8-hydroxy-1-methoxy-3-methyl-7,12-dihydro-5H-benzo[d]naphtho[2,3-b]pyran-5,7,12-trione]	Sparingly soluble	Sparingly soluble	Sparingly soluble	Sparingly soluble	Insoluble	2.0	108	2.0	92	0.3	97	0	106	0	108	0	95	–	–	–	Solubility (Solubility; dimethyl sulfoxide): Partially soluble; Solubility (Solubility; tetrahydrofuran): Partially soluble; Stability (Stability; acid solutions): Instable; Stability (Stability; alkaline solutions): Instable
COc1cc(C)cc(C(=O)O)c1C1=CC(=O)c2c(O)cccc2C1=O [(Ia-B), 2-(5-hydroxy-1,4-naphthoquinon-2-yl)-3-methoxy-5-methylbenzoic acid]	Readily soluble	Readily soluble	Readily soluble	Readily soluble	Insoluble	–	–	3	68	0	80	0	95	0	90	0	102	Readily soluble	Insoluble	Stable	Solubility (Solubility; benzene): Insoluble; Stability (Stability; [3]): Stable
COc1cc(C)cc(C(=O)O)c1C1=C(O)C(=O)c2c(O)cccc2C1=O [(Ia-C), 2-(3,5-dihydroxy-1,4-naphthoquinon-2-yl)-3-methoxy-5-methylbenzoic acid]	Partially soluble	–	Readily soluble	Readily soluble	Insoluble	–	–	–	–	–	–	–	–	–	–	–	–	Partially soluble	Insoluble	Stable	Solubility (Solubility; ether): Insoluble; Stability (Stability; [3]): Stable
CC[C@@]1([C@@H]2O[C@@H]([C@H]3O[C@@](O)(CO)[C@H](C)C[C@@H]3C)C[C@@H]2C)CC[C@H]([C@]2(C)CC[C@]3(C[C@H](O)[C@@H](C)[C@@H]([C@@H](C)[C@@H](OC)[C@H](C)C(=O)O)O3)O2)O1 [Monensin, reference compound]	–	–	–	–	–	4.0	99	2.7	92	2.3	98	0	68	0	51	0	41	–	–	–	–
